From US20230265116A1, “DEGRADATION OF (EGFR) BY CONJUGATION OF EGFR INHIBITORS WITH E3 LIGASE LIGAND AND METHODS OF USE” (BEIGENE, LTD., priority 2020, published 2023)
Like-named read-outs stand apart in the source and are kept apart here.

What was measured:
[1] = target: T1, EGFR L858R/T790M/C797S (BaF3-LTC cells) (Homo sapiens, UniProt P00533, C797S/L858R/T790M); assay: EGFR degradation HTRF assay, BaF3-LTC cells; format: cell-based
T1 construct: expressed in transfected cells; host or cells: BaF3
Procedure, shortened: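 Cells treated 16 h at 37 °C, 5% CO2 in medium with 0.2% DMSO; top final concentration 10 uM, 5-fold dilution, 8 doses. Lysates read by HTRF (665/620 nm); degradation % versus DMSO high control, DC50 from four-parameter fit, Dmax as maximal degradation.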

[2] = system: EGFR Del19/T790M/C797S (H1975-clone #28); assay: EGFR degradation HTRF assay, H1975-clone #28 DTC cells; format: cell-based
Procedure, shortened: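 Cells were dosed on day 2 with an 8-point, 5-fold dilution series starting at 10 uM final and incubated 16h at 37° C. After lysis for 1 hour, HTRF antibodies were added overnight at room temperature and the plate was read at 665/620 nm. Degradation was normalised to DMSO wells and fitted for DC50 and Dmax.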

[3] = BaF3-LTC cells; EGFR degradation, IC50 (DC50) from curve fit; read-out: DC50(nM) BaF3-LTC
[4] = BaF3-LTC cells; maximum percentage of inhibition (degradation); read-out: Dmax (%) BaF3-LTC
[5] = H1975 # 28 DTC cells; EGFR degradation, IC50 (DC50) from curve fit; read-out: DC50(nM) H1975 # 28 DTC
[6] = H1975 # 28 DTC cells; maximum percentage of inhibition (degradation)

T1 sequence (P00533 25-1210 T790M/C797S/L858R): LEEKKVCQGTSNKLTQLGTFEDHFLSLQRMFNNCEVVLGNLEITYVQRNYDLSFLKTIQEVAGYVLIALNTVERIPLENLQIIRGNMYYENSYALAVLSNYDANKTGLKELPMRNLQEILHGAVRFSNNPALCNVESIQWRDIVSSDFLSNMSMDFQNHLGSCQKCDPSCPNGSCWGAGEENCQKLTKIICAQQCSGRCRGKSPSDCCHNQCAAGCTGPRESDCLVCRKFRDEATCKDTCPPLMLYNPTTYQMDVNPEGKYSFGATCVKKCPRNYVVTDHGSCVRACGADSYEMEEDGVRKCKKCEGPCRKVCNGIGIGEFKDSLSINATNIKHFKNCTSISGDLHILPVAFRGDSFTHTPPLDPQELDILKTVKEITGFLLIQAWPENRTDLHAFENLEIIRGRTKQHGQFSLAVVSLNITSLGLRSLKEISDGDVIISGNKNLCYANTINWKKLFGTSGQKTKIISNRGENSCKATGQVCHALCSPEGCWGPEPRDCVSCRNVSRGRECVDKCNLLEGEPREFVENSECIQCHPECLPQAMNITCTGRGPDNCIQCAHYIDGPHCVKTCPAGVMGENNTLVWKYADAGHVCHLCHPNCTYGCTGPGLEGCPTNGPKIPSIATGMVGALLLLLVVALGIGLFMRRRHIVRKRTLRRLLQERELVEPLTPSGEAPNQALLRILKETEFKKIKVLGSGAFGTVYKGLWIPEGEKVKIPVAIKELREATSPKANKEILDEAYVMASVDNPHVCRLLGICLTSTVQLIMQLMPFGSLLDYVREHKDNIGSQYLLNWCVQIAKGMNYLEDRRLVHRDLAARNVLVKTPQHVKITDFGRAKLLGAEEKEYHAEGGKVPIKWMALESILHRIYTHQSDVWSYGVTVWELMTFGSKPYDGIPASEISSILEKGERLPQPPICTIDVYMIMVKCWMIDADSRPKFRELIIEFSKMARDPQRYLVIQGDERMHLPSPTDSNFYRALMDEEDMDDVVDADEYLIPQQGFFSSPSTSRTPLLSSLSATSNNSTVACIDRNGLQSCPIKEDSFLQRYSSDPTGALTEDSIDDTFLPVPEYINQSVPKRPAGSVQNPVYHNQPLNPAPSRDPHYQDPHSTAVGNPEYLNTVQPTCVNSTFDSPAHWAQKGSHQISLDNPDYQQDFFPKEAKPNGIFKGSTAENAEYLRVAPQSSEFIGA

Row | SMILES | DC50 [1, 3] [nM] | Dmax [1, 4] [%] | DC50 [2, 5] [nM] | Dmax (%) H1975 # 28 DTC [2, 6] [%] | DC50 ([1]; read-out: DC50(nM) BaF3-LTC; BaF3-LTC cells; EGFR degradation, IC50 (DC50) from curve fit) [nM] | Dmax ([1]; read-out: Dmax (%) BaF3-LTC, BaF3-LTC cells; maximum percentage of inhibition (degradation)) [%] | DC50 ([2]; read-out: DC50(nM) H1975 # 28 DTC; H1975 # 28 DTC cells; EGFR degradation, IC50 (DC50) from curve fit) [nM]
1 | CCc1ccc2c(P(C)(C)=O)c(Nc3nc(Nc4cc(CC)c(N5CCC(N6CCN(CCc7c(F)ccc8c7oc(=O)n8C7CCC(=O)NC7=O)CC6)CC5)cc4OC)ncc3Br)ccc2n1 (stereo not drawn) [Example 444, 3-(7-(2-(4-(1-(4-((5-bromo-4-((5-(dimethylphosphoryl)-2-ethylquinolin-6-yl)amino)pyrimidin-2-yl)amino)-2-ethyl-5-methoxyphenyl)piperidin-4-yl)piperazin-1-yl)ethyl)-6-fluoro-2-oxobenzo[d]oxazol-3(2H)-yl)piperidine-2,6-dione] | 6.28 | 79.4 | 1.19 | 79.58 |  |  | 
2 | CCc1cc(Nc2ncc(Br)c(Nc3ccc4nc(C)sc4c3P(C)(C)=O)n2)c(OC)cc1N1CCC(N2CCN(CCc3cc(F)c([C@H]4CCC(=O)NC4=O)c(F)c3)CC2)CC1 [Example 661, (R)-3-(4-(2-(4-(1-(4-((5-bromo-4-((7-(dimethylphosphoryl)-2-methylbenzo[d]thiazol-6-yl)amino)pyrimidin-2-yl)amino)-2-ethyl-5-methoxyphenyl)piperidin-4-yl)piperazin-1-yl)ethyl)-2,6-difluorophenyl)piperidine-2,6-dione] | 8.68 | 85.8 | 0.609 | 87.94 |  |  | 
3 | CCc1ccc2c(P(C)(C)=O)c(Nc3nc(Nc4cc(CC)c(N5CCC(N6CCN(CC7CN(c8cc(F)c(C9CCC(=O)NC9=O)c(F)c8)C7)CC6)CC5)cc4OC)ncc3Br)ccc2n1 (stereo not drawn) [Example 508, 3-(4-(3-((4-(1-(4-((5-bromo-4-((5-(dimethylphosphoryl)-2-ethylquinolin-6-yl)amino)pyrimidin-2-yl)amino)-2-ethyl-5-methoxyphenyl)piperidin-4-yl)piperazin-1-yl)methyl)azetidin-1-yl)-2,6-difluorophenyl)piperidine-2,6-dione] | 14.7 | 89.3 | 1 | 72.7 |  |  | 
4 | CCc1cc(Nc2ncc(Br)c(Nc3ccc4nc(C)ncc4c3P(C)(C)=O)n2)c(OC)cc1N1CCC(N2CCN(CCc3cc(F)c([C@H]4CCC(=O)NC4=O)c(F)c3)CC2)CC1 [Example 739, (R)-3-(4-(2-(4-(1-(4-((5-bromo-4-((5-(dimethylphosphoryl)-2-methylquinazolin-6-yl)amino)pyrimidin-2-yl)amino)-2-ethyl-5-methoxyphenyl)piperidin-4-yl)piperazin-1-yl)ethyl)-2,6-difluorophenyl)piperidine-2,6-dione] | 2.89 |  | 0.614 | 85.55 |  |  | 
5 | CCc1cc(Nc2ncc(Br)c(Nc3ccc4ncncc4c3P(C)(C)=O)n2)c(OC)cc1N1CCC(N2CCN(C(=O)[C@@H]3CCN(c4cc(F)c([C@H]5CCC(=O)NC5=O)c(F)c4)C3)CC2)CC1 [Example 668, (R)-3-(4-((R)-3-(4-(1-(4-((5-bromo-4-((5-(dimethylphosphoryl)quinazolin-6-yl)amino)pyrimidin-2-yl)amino)-2-ethyl-5-methoxyphenyl)piperidin-4-yl)piperazine-1-carbonyl)pyrrolidin-1-yl)-2,6-difluorophenyl)piperidine-2,6-dione] | 2.32 | 91.5 | 0.579 | 86.5 |  |  | 
6 | CCc1cc(Nc2ncc(Br)c(Nc3ccc4nc(C)ccc4c3P(C)(C)=O)n2)c(OC)cc1N1CCC(N2CCN(C(=O)C3CCN(c4cc(F)c(C5CCC(=O)NC5=O)c(F)c4)CC3)CC2)CC1 (stereo not drawn) [Example 517, 3-(4-(4-(4-(1-(4-((5-bromo-4-((5-(dimethylphosphoryl)-2-methylquinolin-6-yl)amino)pyrimidin-2-yl)amino)-2-ethyl-5-methoxyphenyl)piperidin-4-yl)piperazine-1-carbonyl)piperidin-1-yl)-2,6-difluorophenyl)piperidine-2,6-dione] | 7 | 91.3 | 0.968 | 58.8 |  |  | 
7 | CCc1ccc2c(P(C)(C)=O)c(Nc3nc(Nc4cc(CC)c(N5CCC(N6CCN(CCc7ccc([C@H]8CCC(=O)NC8=O)cc7)CC6)CC5)cc4OC)ncc3Br)ccc2n1 [Example 654, (R)-3-(4-(2-(4-(1-(4-((5-bromo-4-((5-(dimethylphosphoryl)-2-ethylquinolin-6-yl)amino)pyrimidin-2-yl)amino)-2-ethyl-5-methoxyphenyl)piperidin-4-yl)piperazin-1-yl)ethyl)phenyl)piperidine-2,6-dione] | 23.2 | 74.8 | 2.08 | 66.53 |  |  | 
8 | CCc1ccc2c(P(C)(C)=O)c(Nc3nc(Nc4cc(CC)c(N5CCC(N6CCN(CCCc7ccc8c(c7)oc(=O)n8C7CCC(=O)NC7=O)CC6)CC5)cc4OC)ncc3Br)ccc2n1 (stereo not drawn) [Example 456, 3-(6-(3-(4-(1-(4-((5-bromo-4-((5-(dimethylphosphoryl)-2-ethylquinolin-6-yl)amino)pyrimidin-2-yl)amino)-2-ethyl-5-methoxyphenyl)piperidin-4-yl)piperazin-1-yl)propyl)-2-oxobenzo[dloxazol-3(2H)-yl)piperidine-2,6-dione] | 3.56 | 89.9 | 0.621 | 71.36 |  |  | 
9 | CCc1ncc2c(P(C)(C)=O)c(Nc3nc(Nc4cc(CC)c(N5CCC(N6CCN(C(=O)Cc7ccc8c(c7)oc(=O)n8C7CCC(=O)NC7=O)CC6)CC5)cc4OC)ncc3Br)ccc2n1 (stereo not drawn) [Example 646, 3-(6-(2-(4-(1-(4-((5-bromo-4-((5-(dimethylphosphoryl)-2-ethylquinazolin-6-yl)amino)pyrimidin-2-yl)amino)-2-ethyl-5-methoxyphenyl)piperidin-4-yl)piperazin-1-yl)-2-oxoethyl)-2-oxobenzo[d]oxazol-3(2H)-yl)piperidine-2,6-dione] |  |  |  | 74.64 | 6.2 | 94.5 | 0.627
10 | CCOc1cc(N2CCC(N3CCN(CCc4ccc5c(oc(=O)n5C5CCC(=O)NC5=O)c4F)CC3)CC2)c(CC)cc1Nc1ncc(Br)c(Nc2ccc3nc(CC)ccc3c2P(C)(C)=O)n1 (stereo not drawn) [Example 555, 3-(6-(2-(4-(1-(4-((5-bromo-4-((5-(dimethylphosphoryl)-2-ethylquinolin-6-yl)amino)pyrimidin-2-yl)amino)-5-ethoxy-2-ethylphenyl)piperidin-4-yl)piperazin-1-yl)ethyl)-7-fluoro-2-oxobenzo[d]oxazol-3(2H)-yl)piperidine-2,6-dione] | 7.36 | 94.5 | 1.89 | 77.45 |  |  | 
11 | COc1cc(N2CCC(N3CC(C(=O)N4CCC(c5cc(F)c(C6CCC(=O)NC6=O)c(F)c5)CC4)C3)CC2)c(C)cc1Nc1ncc(Br)c(Nc2ccc3nc(C)ccc3c2P(C)(C)=O)n1 (stereo not drawn) [Example 687, 3-(4-(1-(1-(1-(4-((5-bromo-4-((5-(dimethylphosphoryl)-2-methylquinolin-6-yl)amino)pyrimidin-2-yl)amino)-5-methoxy-2-methylphenyl)piperidin-4-yl)azetidine-3-carbonyl)piperidin-4-yl)-2,6-difluorophenyl)piperidine-2,6-dione] | 14.8 | 93.3 | 1.38 | 68.75 |  |  | 
12 | CCOc1cc(N2CCC(N3CCN(CCc4c(F)ccc5c4n(C)c(=O)n5C4CCC(=O)NC4=O)CC3)CC2)c(CC)cc1Nc1ncc(Br)c(Nc2ccc3nc(CC)ncc3c2P(C)(C)=O)n1 (stereo not drawn) [Example 736, 3-(4-(2-(4-(1-(4-((5-bromo-4-((5-(dimethylphosphoryl)-2-ethylquinazolin-6-yl)amino)pyrimidin-2-yl)amino)-5-ethoxy-2-ethylphenyl)piperidin-4-yl)piperazin-1-yl)ethyl)-5-fluoro-3-methyl-2-oxo-2,3-dihydro-1H-benzol[d]imidazol-1-yl)piperidine-2,6-dione] | 4.01 |  | 0.564 | 81.93 |  |  | 
13 | CCOc1cc(N2CCC(N3CCN(CCc4ccc5c(c4)oc(=O)n5C4CCC(=O)NC4=O)CC3)CC2)c(CC)cc1Nc1ncc(Br)c(Nc2ccc3nc(C)ccc3c2P(C)(C)=O)n1 (stereo not drawn) [Example 676, 3-(6-(2-(4-(1-(4-((5-bromo-4-((5-(dimethylphosphoryl)-2-methylquinolin-6-yl)amino)pyrimidin-2-yl)amino)-5-ethoxy-2-ethylphenyl)piperidin-4-yl)piperazin-1-yl)ethyl)-2-oxobenzo[d]oxazol-3(2H)-yl)piperidine-2,6-diQne] | 3.14 | 96.4 | 0.64 | 88.89 |  |  | 
14 | CCOc1cc(N2CCC(N3CCN(CCCc4cc(C)cc5c4oc(=O)n5C4CCC(=O)NC4=O)CC3)CC2)c(CC)cc1Nc1ncc(Br)c(Nc2ccc3nc(CC)ccc3c2P(C)(C)=O)n1 (stereo not drawn) [Example 636, 3-(7-(3-(4-(1-(4-((5-bromo-4-((5-(dimethylphosphoryl)-2-ethylquinolin-6-yl)amino)pyrimidin-2-yl)amino)-5-ethoxy-2-ethylphenyl)piperidin-4-yl)piperazin-1-yl)propyl)-5-methyl-2-oxobenzo[d]oxazol-3(2H)-yl)piperidine-2,6-dione] | 11 | 92.3 | 1.52 | 79.04 |  |  | 
